Counter-ions that a name gives are not always drawn.
What was measured:
[1] = tested on: CCL2-mediated chemotaxis of activated murine macrophages (F4/80+/CD11b+); test: Ex vivo CCL2-induced chemotaxis of activated mouse macrophages (Transwell); assay type: cell-based; details: 2 hours
Description: Mouse monocyte migration in response to CVC treatment was assessed ex vivo in triplicate. TG was injected intraperitoneally into male C57BL/6 mice (n = 3; 8–10 weeks of age; Jackson Laboratory, USA) and activated macrophages were collected 48 hours later by peritoneal lavage. Chemotaxis was assayed using a Transwell® Chamber (Costar, USA) with a 5 μm-pore size polycarbonate filter, as previously described. Briefly, cells were incubated for 2 hours in the presence of 1 nM CCL2 and/or 1 μM CVC (dissolved in dimethyl sulfoxide with 0.5% acetic acid and diluted 1:1000 with serum-free Roswell Park Memorial Institute-1640 medium and 0.5% bovine serum albumin). Cells were harvested from the lower compartment and analyzed by flow cytometry to enumerate F4/80^+CD11b^+ macrophages using a 3-laser BD FACSCanto™ (BD Biosciences, Canada). Results were analyzed using FlowJo software (Tree Star Inc., USA).
In the peritonitis mouse model, one-way analysis of variance with post-hoc Dunnett’s test was performed, using GraphPad Prism® (GraphPad Software, Inc., USA), on differential cell counts obtained from lavage in treatment groups versus the vehicle-control group. For the ex vivo migration of mouse monocytes, statistical significance was determined by a Student’s t test.

[2] = tested on: CCR5; details: cited from earlier work
[3] = parameters: method as in PMID 21317794, PMID 21486960, PMID 16251299; details: in humans; cited from earlier work
[4] = tested on: TAA-induced liver fibrosis; test: Rat model of thioacetamide (TAA)-induced liver fibrosis; assay type: in vivo; details: for Reduction in liver collagen deposition vs vehicle control: picrosirius red; for Reduction in protein expression of alpha-SMA vs vehicle control / Reduction in protein expression of collagen type 1 vs vehicle control: western blot, not statistically significant
Description: The TAA model is commonly used for the evaluation of treatment at various stages of disease, from inflammation to cirrhosis. The protocol was approved by the Mount Sinai IACUC (approval number: LA12-00318) and animals were maintained according to the NIH guidelines. Anesthesia was performed with 1–5% isoflurane through inhalation; surgery was terminal.
Using male Sprague-Dawley rats (n = 72, 10–12 weeks of age; Harlan Laboratories, USA), fibrosis was induced by IP administration of TAA at a dose of 150 mg/kg three times per week for 8 weeks. Rats (n = 4–8/group) received vehicle control, CVC 30 mg/kg/day (CVC30) or CVC100 QD PO during Weeks 0–8 (early intervention), Weeks 4–8 (established fibrosis) or Weeks 8–12 (cirrhosis reversal) and were sacrificed at Weeks 8, 8 or 12, respectively (S1 Table). Study endpoints included: body and liver weights, liver biochemistry (e.g. serum alanine and aspartate aminotransferase [ALT/AST]), extracellular matrix protein expression in liver tissue (collagen type 1 and alpha-SMA), mRNA expression (collagen type 1, alpha-SMA, beta-platelet-derived growth factor-beta receptor, TGF beta-receptor, matrix metalloproteinase 2, tissue inhibitor of metalloproteinases 1 [TIMP1] and 2 [TIMP2]) and liver morphology. For liver-function testing, plasma samples were obtained from blood collected from the vena cava. Livers were sectioned and fixed in 3.7% formalin, embedded in paraffin, cut at […] thickness and stained with hematoxylin and eosin (H&E) for histological examination.
In the TAA model, serum ALT/AST levels were measured using VITROS® 5,1 FS (Ortho Clinical Diagnostics, USA), with plasma diluted with VITROS® 7% bovine serum albumin if needed. In the NASH model, plasma ALT levels were measured by FUJI DRI-CHEM 7000 (Fujifilm, Japan) and plasma CCL2 concentration quantified by the mouse CCL2/JE/MCP-1 immunoassay kit (R&D, USA).
Collagen deposition (the extent of fibrosis) was visualized in liver/kidney sections with picrosirius red staining. In the TAA model, collagen quantification was performed using computerized Life Science morphometry system (BIOQUANT, USA) on a total of 36 images per animal at 100x magnification (four picrosirius red-stained slides per animal, with nine images taken randomly per slide).
In the TAA model, total protein was extracted from liver cells and expression levels of collagen type 1 and alpha-SMA were assessed by western blotting. Protein expression levels were normalized to the reference protein (glyceraldehyde-3-phosphate dehydrogenase [GAPDH] or calnexin).
In the hepatic-fibrosis models, RNA was extracted from liver tissues and purified, and 1 μg of total mRNA was reverse-transcribed into complementary DNA. Expression levels were determined by quantitative polymerase chain reaction (PCR) (iQ™ SYBR® Green Supermix [Bio-Rad Laboratories, USA] on the LightCycler® 480 Real-Time PCR System [Roche, Switzerland]) in the TAA model at Week 8 (early intervention and established fibrosis) and Week 12 (cirrhosis reversal), and by real-time PCR (PCR Dice® and SYBR® Premix Ex Taq™ [Takara Bio Inc., Japan]) at Week 9 in the NASH model.
Relative mRNA expression levels were normalized to the following reference genes: TAA model, GAPDH; NASH model, 36B4 (gene symbol: Rplp0); UUO model, hypoxanthine phosphoribosyltransferase.
Data are presented as ±standard error of the mean (SEM) in the TAA model. Statistical significance was determined by the two-tailed Student’s t test.

[5] = tested on: MCD-induced NASH; details: cited from earlier work

## CCCCOCCOc1ccc(-c2ccc3c(c2)/C=C(/C(=O)Nc2ccc([S@@+]([O-])Cc4cncn4CCC)cc2)CCCN3CC(C)C)cc1 [CVC, cenicriviroc mesylate]
[1]; CCL2-stimulated (1 nM) cells treated with CVC 1 μM
  Average fold change in migrating cells (±SD) compared to untreated and unstimulated cells: 0.8±0.2 fold
[1]; unstimulated cells treated with CVC 1 μM
  Average fold change in migrating cells (±SD) compared to untreated and unstimulated cells: 0.7±0.4 fold
[2]; CVC 250 nM, murine cryopreserved PBMC ex vivo
  Occupancy for CCR5 (spleen) in proinflammatory monocytes: 87%
[2]; CVC concentrations of 250 nmol/L or higher, mouse monocytes and macrophages ex vivo
  CCR5 occupancy: > 87%
[3]
  Plasma half-life: 30 to 40 h
[4]; TAA model
  mRNA expression of the fibrosis markers assessed, CVC vs vehicle control: no significant changes
[4]; TAA model, all groups
  ALT levels, CVC-treated vs vehicle-control groups: no significant differences
[4]; advanced disease cirrhosis group
  Reductions in collagen type 1 and alpha-SMA protein expression: No reductions
[4]; all TAA groups
  Histologic differences between groups, H&E-stained liver sections: No histologic differences
[4]; cirrhosis-reversal group, CVC treatment started at Week 8 (Weeks 8-12)
  Reduction in collagen deposition: No significant reduction
[4]; early intervention (Weeks 0-8), CVC30 QD PO
  Reduction in liver collagen deposition vs vehicle control: 48.5%
[4]; early intervention (Weeks 0-8), CVC100 QD PO
  Reduction in liver collagen deposition vs vehicle control: 37.5%
[4]; early intervention group, CVC30, p < 0.05
  AST levels vs vehicle control: significantly decreased
[4]; early intervention, CVC30
  Reduction in protein expression of alpha-SMA vs vehicle control: 17%
  Reduction in protein expression of collagen type 1 vs vehicle control: 29%
[4]; early intervention, CVC100
  Reduction in protein expression of alpha-SMA vs vehicle control: 22%
  Reduction in protein expression of collagen type 1 vs vehicle control: 12%
[4]; established fibrosis (Weeks 4-8), CVC30 QD PO
  Reduction in liver collagen deposition vs vehicle control: 35.7%
[4]; established fibrosis (Weeks 4-8), CVC100 QD PO
  Significant antifibrotic effect (collagen deposition) observed: not
[4]; established fibrosis, CVC30
  Reduction in protein expression of alpha-SMA vs vehicle control: 14%
  Reduction in protein expression of collagen type 1 vs vehicle control: 30%
[5]; MCD model, preliminary data
  Infiltration of Ly6Chi monocyte-derived macrophages into the liver: significantly decreased
[5]; chronic MCD model of NASH
  Hepatic fibrosis (Sirius red staining and hydroxyproline content): reduced
  Steatohepatitis, assessed by histological NAFLD activity score: significantly ameliorated
